From patent US8119621B2, “Tetrahydro-cyclopentyl pyrazole cannabinoid modulators” (Janssen Pharmaceutica N.V., priority 2005, dated 2012)
Where “and” joins values, the source holds several entries; their conditions need not be identical. Identical values can stand only once. Like-named read-outs stand apart in the source and are kept apart here.

Assays:
[1] = target: T1, human CB1 receptor (Homo sapiens, UniProt P21554); experiment: Binding assay for CB1 agonists or inverse agonists ([3H]-CP-55,940 displacement, SK-N-MC membranes); settings: for inhibition at 0.2 µM: test concentration 0.2 μM (footnote 2); for inhibition at 0.2 µM / inhibition at 0.25 µM / inhibition at 1 µM: read-out: CB1 receptor binding percent inhibition
T1 construct: expressed in transfected cells; host or cells: SK-N-MC cells, stably transfected with pcDNA3 CB-1 (human); semi-purified membrane pellet
T1 sequence (P21554 whole entry): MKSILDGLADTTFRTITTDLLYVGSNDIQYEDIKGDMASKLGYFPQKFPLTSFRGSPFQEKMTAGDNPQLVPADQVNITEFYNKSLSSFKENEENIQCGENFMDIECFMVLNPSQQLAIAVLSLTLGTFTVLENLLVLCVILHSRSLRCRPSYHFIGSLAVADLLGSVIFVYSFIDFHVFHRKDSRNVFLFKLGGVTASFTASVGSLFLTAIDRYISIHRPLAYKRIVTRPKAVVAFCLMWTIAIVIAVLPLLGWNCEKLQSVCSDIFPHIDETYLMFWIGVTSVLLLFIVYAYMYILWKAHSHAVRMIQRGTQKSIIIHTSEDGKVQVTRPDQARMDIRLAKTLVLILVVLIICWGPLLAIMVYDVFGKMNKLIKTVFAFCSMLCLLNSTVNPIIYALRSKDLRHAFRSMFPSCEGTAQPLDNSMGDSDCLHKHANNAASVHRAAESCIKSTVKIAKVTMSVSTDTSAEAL
Protocol: (§1) The human CB1 and CB2 receptors were stably expressed in SK-N-MC cells transfected with pcDNA3 CB-1 (human) or pcDNA3 CB-2 (human). The cells were grown in T-180 cell culture flasks under standard cell culture conditions at 37° C. in a 5% CO2 atmosphere. The cells were harvested by trysinization and homogenized in a homogenization buffer (10 mM Tris, 0.2 mM MgCl2, 5 mM KCl, with protease inhibitors aprotinin, leupeptin, pepstatin A and bacitracin) and centrifuged (2000 g). The supernatant was then centrifuged in 2M sucrose (31,300 g) to produce a semi-purified membrane pellet. The pellet was resuspended in homogenization and stored at −80° C.
(§2) On the day of the assay, the pellet was thawed on ice and diluted in assay buffer (50 mM Tris-HCl, 5 mM MgCl2, 2.5 mM EDTA, 0.5 mg/mL fatty acid free bovine serum albumin, pH 7.5). […] The plate was covered and incubated for 90 minutes at 30° C. The contents were then aspirated onto a Packard Unifilter GF/C filter bottom plate prewet with 0.5% polyethyleneimine. The wells of the polypropylene plate were rinsed and aspirated seven times with a 0.9% saline-0.5% Tween 20 solution. The Unifilter plate was dried, a scintillation cocktail was added to each well and the counts representing binding were quantitated in a TopCount scintillation counter.
(§3) For compounds tested, an IC50 binding value was obtained from percent inhibition studies in which various test concentrations were used. The binding value was calculated by linear regression.

[2] = target: T2, human CB2 receptor (Homo sapiens, UniProt P34972); experiment: Binding assay for CB2 agonists or inverse agonists ([3H]-CP-55,940 displacement, SK-N-MC membranes); settings: for inhibition at 0.2 µM / inhibition at 0.25 µM: read-out: CB2 receptor binding percent inhibition
T2 construct: expressed in transfected cells; host or cells: SK-N-MC cells, stably transfected with pcDNA3 CB-2 (human); semi-purified membrane pellet
T2 sequence (P34972 whole entry): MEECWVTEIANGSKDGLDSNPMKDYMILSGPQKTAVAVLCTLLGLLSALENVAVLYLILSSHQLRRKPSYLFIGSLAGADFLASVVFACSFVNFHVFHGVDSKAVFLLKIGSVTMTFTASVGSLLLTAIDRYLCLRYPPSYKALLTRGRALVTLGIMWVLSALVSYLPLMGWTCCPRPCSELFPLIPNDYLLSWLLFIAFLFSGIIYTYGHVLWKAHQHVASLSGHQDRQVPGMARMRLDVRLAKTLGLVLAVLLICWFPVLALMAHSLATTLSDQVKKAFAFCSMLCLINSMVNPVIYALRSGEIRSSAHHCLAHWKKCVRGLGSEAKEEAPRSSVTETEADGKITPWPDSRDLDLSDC
Protocol: as §1, §2, §3

[3] = target: T1, human CB1 receptor; experiment: Functional cell-based assay, CB1 receptor mediated change in CRE β-gal expression (adenylate cyclase activity); settings: for EC50: CRE β-gal; for CB1 Receptor Functional Activity (change in functional activity): one compound concentration, vehicle treated cell = 100%
Description: The CB1 and CB2 receptors are G-protein coupled receptors (GPCR), which influence cell function via the Gi-protein. These receptors modulate the activity of intracellular adenylate cyclase, which in turn produces the intracellular signal messenger cyclic-AMP (cAMP).
At baseline, or during non-ligand bound conditions, these receptors are constitutively active and tonically suppress adenylate cyclase activity. The binding of an agonist causes further receptor activation and produces additional suppression of adenylate cyclase activity. The binding of an inverse agonist inhibits the constitutive activity of the receptors and results in an increase in adenylate cyclase activity.
Test compounds were evaluated in SK-N-MC cells which, using standard transfection procedures, were stably transfected with human cDNA for pcDNA3-CRE β-gal and pcDNA3 CB1 receptor (human) or pcDNA3 CB2 receptor (human). By expressing CRE β-gal, the cells produced β-galactosidase in response to CRE promoter activation by cAMP. Cells expressing CRE β-gal and either the human CB1 or CB2 receptor will produce less β-galactosidase when treated with a CB1/CB2 agonist and will produce more β-galactosidase when treated with a CB1/CB2 inverse agonist.
The cells were grown in 96-well plates under standard cell culture conditions at 37° C. in a 5% CO2 atmosphere. After 3 days, the media was removed and a test compound in media (wherein the media was supplemented with 2 mM L-glutamine, […] sodium pyruvate, 0.1% low fatty acid FBS (fetal bovine serum) and antibiotics) was added to the cell. The plates were incubated for 30 minutes at 37° C. and the plate cells were then treated with forskolin over a 4-6 hour period, then washed and lysed. The β-galactosidase activity was quantitated using commercially available kit reagents (Promega Corp. Madison, Wis.) and a Vmax Plate Reader (Molecular Devices, Inc).
The change in β-galactosidase activity was determined by setting a vehicle treated cell's activity value at 100% and expressing the β-galactosidase activity measured in a corresponding compound treated cell as a percent of the vehicle treated cell activity.
The EC50 value for functional activity for compounds tested was calculated by linear regression and was obtained from studies in which varying compound concentrations were used.
Where an EC50 value was not obtained for a test compound, the value shown (in %) represents change in functional activity and was obtained from a study in which one compound concentration was used.

[4] = test concentration 0.2 μM (footnote 2)
[5] = test concentration 0.25 μM (footnote 3)

O=C(N[C@@H](CCl)c1ccccc1)c1nn(-c2ccc(F)cc2F)c2c1CCC2Cc1cccc(F)c1 (stereo partly drawn) [Cpd 26, 1-(2,4-difluoro-phenyl)-6-(3-fluoro-benzyl)-1,4,5,6-tetrahydro-cyclopentapyrazole-3-carboxylic acid [(1R)-2-chloro-1-phenyl-ethyl]-amide] gave an inhibition at 0.2 µM [1] of 24% and an inhibition at 0.2 µM [2, 4] of 32%.

For O=C(NN1CCCCC1)c1nn(-c2ccc(Cl)cc2Cl)c2c1CC/C2=C\c1ccc(F)cc1 [Cpd 28, (6E)-1-(2,4-dichloro-phenyl)-6-(4-fluoro-benzylidene)-1,4,5,6-tetrahydro-cyclopentapyrazole-3-carboxylic acid piperidin-1-ylamide], the IC50 [1] was 60 nM, the “CB1 receptor binding percent inhibition” value ([1]; 0.2 µM) was 0.06, ^(2) 68% and the “CB2 receptor binding percent inhibition” value [2, 4] was “^(2) 4%”.

In the case of CC12CCC(C1)C(C)(C)[C@H]2NC(=O)c1nn(-c2ccc(F)cc2F)c2c1CCC2Cc1cccc(F)c1 (stereo partly drawn) [Cpd 7, 1-(2,4-difluoro-phenyl)-6-(3-fluoro-benzyl)-1,4,5,6-tetrahydro-cyclopentapyrazole-3-carboxylic acid [(2S)-1,3,3-trimethyl-bicyclo[2.2.1]hept-2-yl]-amide], the inhibition at 0.25 µM [1] is reported as 60% and the inhibition at 0.25 µM [2] is reported as 70%.

Compound C[C@H](NS(=O)(=O)/C=C/c1nn(-c2ccc(F)cc2F)c2c1CCC2Cc1cccc(F)c1)c1ccccc1 (stereo partly drawn) [Cpd 1, (2E)-2-[1-(2,4-difluoro-phenyl)-6-(3-fluoro-benzyl)-1,4,5,6-tetrahydro-cyclopentapyrazol-3-yl]-ethenesulfonic acid [(1S)-1-phenyl-ethyl]-amide] has an inhibition at 0.25 µM [1] of 5%, an inhibition at 0.25 µM [2] of 14% and an EC50 ([3]; CB1 receptor functional agonist EC50, SK-N-MC cells, functional agonist) of 40 nM.

CCOC(=O)[C@H]1C2CCC(C2)[C@H]1NC(=O)c1nn(-c2ccc(F)cc2F)c2c1CCC2Cc1cccc(F)c1 (stereo partly drawn) [Cpd 13, (2S,3R)-3-{[1-(2,4-difluoro-phenyl)-6-(3-fluoro-benzyl)-1,4,5,6-tetrahydro-cyclopentapyrazole-3-carbonyl]-amino}-bicyclo[2.2.1]heptane-2-carboxylic acid ethyl ester] was tested, and the inhibition at 0.25 µM [1, 5] was 58%, the inhibition at 0.25 µM [2, 5] was 44% and the “CB1 Receptor Functional Activity (change in functional activity)” value [3] was 24%.

In the case of C[C@H](NC(=O)c1nn(-c2ccc(F)cc2F)c2c1CCC2Cc1cccc(F)c1)C1CCCCC1 (stereo partly drawn) [Cpd 20, 1-(2,4-difluoro-phenyl)-6-(3-fluoro-benzyl)-1,4,5,6-tetrahydro-cyclopentapyrazole-3-carboxylic acid [(1S)-1-cyclohexyl-ethyl]-amide], the inhibition at 0.25 µM [1] is reported as 70%, the inhibition at 0.25 µM [2] is reported as 44% and the “CB1 Receptor Functional Activity (change in functional activity)” value [3] is reported as 37%.

C[C@@H](NS(=O)(=O)/C=C/c1nn(-c2ccc(Cl)cc2Cl)c2c1CCC2Cc1cccc(Cl)c1)C1CCCCC1 (stereo partly drawn) [Cpd 9, (2E)-2-[6-(3-chloro-benzyl)-1-(2,4-dichloro-phenyl)-1,4,5,6-tetrahydro-cyclopentapyrazol-3-yl]-ethenesulfonic acid [(1R)-1-cyclohexyl-ethyl]-amide] was tested, and the inhibition at 0.25 µM [1, 5] was 44% and the inhibition at 0.25 µM [2, 5] was 18%.

With O=S(=O)(/C=C/c1nn(-c2ccc(F)cc2F)c2c1CCC2Cc1cccc(F)c1)NN1CCOCC1 (centres unmarked) [Cpd 2, (2E)-2-[1-(2,4-difluoro-phenyl)-6-(3-fluoro-benzyl)-1,4,5,6-tetrahydro-cyclopentapyrazol-3-yl]-ethenesulfonic acid morpholin-4-ylamide] the inhibition at 0.25 µM [1, 5] was 0%, the inhibition at 0.25 µM [2, 5] was 21% and the “CB1 Receptor Functional Activity (change in functional activity)” value [3] was 58%.

O=C(N[C@H](CO)c1ccccc1)c1nn(-c2ccc(F)cc2F)c2c1CCC2Cc1cccc(F)c1 (stereo partly drawn) [Cpd 24, 1-(2,4-difluoro-phenyl)-6-(3-fluoro-benzyl)-1,4,5,6-tetrahydro-cyclopentapyrazole-3-carboxylic acid [(1S)-2-hydroxy-1-phenyl-ethyl]-amide] gave an inhibition at 0.2 µM [1] of 0% and an inhibition at 0.2 µM [2, 4] of 0%.

With O=C(c1nn(-c2ccc(F)cc2F)c2c1CCC2Cc1cccc(F)c1)N1CCN(c2ccccc2)CC1 (centres unmarked) [Cpd 17, [1-(2,4-difluoro-phenyl)-6-(3-fluoro-benzyl)-1,4,5,6-tetrahydro-cyclopentapyrazol-3-yl]-(4-phenyl-piperazin-1-yl)-methanone] the inhibition at 1 µM [1] was 35% and the EC50 ([3]; CB1 Receptor Functional Inverse Agonist EC50, SK-N-MC cells, forskolin) was 400 nM and 100 nM.

Compound O=C(N[C@H](CCl)Cc1ccccc1)c1nn(-c2ccc(F)cc2F)c2c1CCC2Cc1cccc(F)c1 (stereo partly drawn) [Cpd 27, 1-(2,4-difluoro-phenyl)-6-(3-fluoro-benzyl)-1,4,5,6-tetrahydro-cyclopentapyrazole-3-carboxylic acid [(1S)-1-benzyl-2-chloro-ethyl]-amide] has an inhibition at 0.2 µM [1] of 14% and an inhibition at 0.2 µM [2, 4] of 22%.

Work on O=S(=O)(/C=C/c1nn(-c2ccc(Cl)cc2Cl)c2c1CCC2Cc1cccc(Cl)c1)NN1CCCCC1 (centres unmarked) [Cpd 10, (2E)-2-[6-(3-chloro-benzyl)-1-(2,4-dichloro-phenyl)-1,4,5,6-tetrahydro-cyclopentapyrazol-3-yl]-ethenesulfonic acid piperidin-1-ylamide] yielded an inhibition at 1 µM ([1]; test concentration 1 μM (footnote 1)) of 18%.

O=C(c1nn(-c2ccc(F)cc2F)c2c1CCC2Cc1cccc(F)c1)N1CCOCC1 (centres unmarked) [Cpd 23, [1-(2,4-difluoro-phenyl)-6-(3-fluoro-benzyl)-1,4,5,6-tetrahydro-cyclopentapyrazol-3-yl]-morpholin-4-yl-methanone] gave an inhibition at 0.25 µM [1, 5] of 0% and an inhibition at 0.25 µM [2, 5] of 0%.

O=C(N[C@@H](CO)Cc1ccccc1)c1nn(-c2ccc(F)cc2F)c2c1CCC2Cc1cccc(F)c1 (stereo partly drawn) [Cpd 25, 1-(2,4-difluoro-phenyl)-6-(3-fluoro-benzyl)-1,4,5,6-tetrahydro-cyclopentapyrazole-3-carboxylic acid [(1R)-1-benzyl-2-hydroxy-ethyl]-amide] gave an inhibition at 0.2 µM [1] of 23% and an inhibition at 0.2 µM [2, 4] of 31%.

For O=C(N[C@@H]1c2ccccc2C[C@@H]1O)c1nn(-c2ccc(F)cc2F)c2c1CCC2Cc1cccc(F)c1 (stereo partly drawn) [Cpd 12, 1-(2,4-difluoro-phenyl)-6-(3-fluoro-benzyl)-1,4,5,6-tetrahydro-cyclopentapyrazole-3-carboxylic acid [(1R,2S)-2-hydroxy-indan-1-yl]-amide], the IC50 [1] was 90 nM, the inhibition at 0.25 µM [1] was 63% and the “CB2 receptor binding percent inhibition” value [2, 5] was “^(3) 31%”.

C[C@H](NS(=O)(=O)/C=C/c1nn(-c2ccc(Cl)cc2Cl)c2c1CCC2Cc1cccc(Cl)c1)c1ccccc1 (stereo partly drawn) [Cpd 11, (2E)-2-[6-(3-chloro-benzyl)-1-(2,4-dichloro-phenyl)-1,4,5,6-tetrahydro-cyclopentapyrazol-3-yl]-ethenesulfonic acid [(1S)-1-phenyl-ethyl]-amide] gave an inhibition at 0.25 µM [1, 5] of 27%.

Work on O=C(NN1CCOCC1)c1nn(-c2ccc(F)cc2F)c2c1CCC2Cc1cccc(F)c1 (centres unmarked) [Cpd 22, 1-(2,4-difluoro-phenyl)-6-(3-fluoro-benzyl)-1,4,5,6-tetrahydro-cyclopentapyrazole-3-carboxylic acid morpholin-4-ylamide] yielded an inhibition at 0.25 µM [1, 5] of 14% and an inhibition at 0.25 µM [2, 5] of 0%.
